How the values were obtained:
[1] = target: T1, SIRT2 (Homo sapiens, UniProt Q8IXJ6); assay: Fluorescence polarization assay (FPA); format: binding; conditions: with versus without NAD+
T1 construct: For assay experiments, strep-tagged human SIRT1134−747 and SIRT256-356 were expressed and purified as previously; Strep-tag; made in house; host or cells: E. coli BL21 Star (DE3)
T1 sequence (Q8IXJ6 56-356 limits assumed): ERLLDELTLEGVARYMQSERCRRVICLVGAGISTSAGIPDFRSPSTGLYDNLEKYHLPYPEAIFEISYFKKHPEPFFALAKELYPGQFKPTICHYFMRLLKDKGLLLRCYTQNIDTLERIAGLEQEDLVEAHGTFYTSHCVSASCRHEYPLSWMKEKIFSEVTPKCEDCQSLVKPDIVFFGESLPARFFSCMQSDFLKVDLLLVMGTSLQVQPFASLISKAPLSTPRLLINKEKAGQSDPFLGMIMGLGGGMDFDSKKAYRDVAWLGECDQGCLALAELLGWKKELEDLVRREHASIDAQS
Description: Protein expression and purification for assays and crystallization
For assay experiments, strep-tagged human SIRT1134−747 and SIRT256-356 were expressed and purified as previously described.[2,4] Briefly, chemically competent E. coli BL21 Star (DE3) cells were transformed with pET30S-hSIRT1134−747 or pET30S-hSIRT256−356 plasmids. Cell cultures were grown in 2× YT medium (5 g/L NaCl, 16 g/L tryptone, 10 g/L yeast extract) supplemented with 50 μg/mL kanamycin at 37 °C reaching an OD600 of 0.6 − 0.7.
Protein expression of SIRT1134−747 and SIRT256−356 was induced with 1 mM IPTG (isopropyl β- D-1-thiogalactopyranoside), followed by incubation for 16 h at 20 °C. […]
Protein purity and identity were confirmed by SDS-PAGE and protein concentration was determined using the BCA assay with BSA as a standard. […] […]
A solution of 10 µL SIRT2 (final concentration of 6.0 µM) and SYPRO Orange (5x, Sigma-Aldrich, Germany) in assay buffer (25 mM Tris-HCl, 150 mM NaCl, 1 mM DTT, pH 8.0) was mixed with 10 µL of compound and incubated at 25 °C and 350 rpm for 5 min. […] Fluorescence intensity was recorded during a temperature gradient of 1°C per 20 s from 25 to 95°C using a real-time PCR machine (C1000 Touch™ Thermal Cycler, CFX96™ Real-Time System, BioRad, USA). […]

[2] = target: T2, HEK293T cells overexpressing a NanoLuc–SIRT2 fusion protein (Homo sapiens, UniProt Q8IXJ6); assay: CE-ESI-MS analysis of adducts formed in cellulo; format: cell-based; conditions: 20 µM, 3 h
T2 construct: transfected HEK293T cells expressing the NanoLuc-tagged SIRT250-356 fusion protein were used instead of transient; expressed in transfected cells; host or cells: HEK293T (stably transfected)
T2 sequence (Q8IXJ6 50-356 limits assumed): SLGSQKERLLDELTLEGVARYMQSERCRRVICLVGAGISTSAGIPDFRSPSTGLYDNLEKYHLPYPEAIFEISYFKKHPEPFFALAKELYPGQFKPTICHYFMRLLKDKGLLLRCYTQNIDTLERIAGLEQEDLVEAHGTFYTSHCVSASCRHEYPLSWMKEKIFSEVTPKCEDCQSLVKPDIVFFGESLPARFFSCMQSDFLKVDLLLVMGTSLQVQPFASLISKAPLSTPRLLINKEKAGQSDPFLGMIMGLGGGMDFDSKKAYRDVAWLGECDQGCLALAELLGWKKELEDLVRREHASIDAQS

[3] = target: T1, SIRT2; assay: Jump-dilution assay; format: biochemical

SMILES | change of affinity upon NAD+ addition (FP) [1] | ADPR adduct formation in cells by CE-ESI-MS/MS [2] | SIRT2 enzymatic activity after jump dilution ([3]; preincubation of SIRT2 with compound and NAD+ (30 min), 1:100 dilution to 4 nM) [%] | SIRT2 enzymatic activity after jump dilution ([3]; without NAD+ preincubation, 1:100 dilution) [%]
Cc1cc(C)nc(SCC(=O)Nc2ncc(Cc3cccc(OCc4c[nH]nn4)c3)s2)n1 [Compound 7] | increased affinities upon NAD+ addition | confirmed formation of 7–ADPR in cellulo |  | 
CCCCCCCCCCCCc1cn(CCCC[C@H](NC(=O)[C@H](CCCCN)NC(=O)[C@@H]2CCCN2C(=O)[C@H](CC(C)C)NC(=O)[C@H](C)NC(=O)[C@H](CCC(=O)O)NC(C)=O)C(=O)N[C@H](C(=O)NCC(=O)NCC(N)=O)[C@@H](C)O)nn1 [Compound 6] |  |  | 13 | 72
COCCn1cc(COc2cccc(Cc3cnc(NC(=O)CSc4nc(C)cc(C)n4)s3)c2)nn1 [Compound 1, reference compound] | increased affinities upon NAD+ addition |  |  | 

From article PMC12723449, “From Pharmacophore to Warhead: NAD^+‐Targeting Triazoles as Mechanism‐Based Sirtuin Inhibitors” (Angewandte Chemie (International Ed. in English), 2025)
